Here are results for four compounds from PubChem BioAssay AID1259407 (Chemical Carcinogenesis Research Information System (CCRIS), 2018).

This series has as its system CCRIS mutagenicity, Ames/micronucleus/aberration tests. Kind of series: CCRIS mutagenicity studies. An excerpt: The CCRIS database contains chemical records with carcinogenicity, mutagenicity, tumor promotion, and tumor inhibition test results. It was developed by the National Cancer Institute (NCI). Data are derived from studies cited in primary journals, current awareness tools, NCI reports, and other sources. Test results have been reviewed by experts in carcinogenesis and mutagenesis.
CCRIS provides historical information from the years 1985 - 2011. It is no longer updated.
This is an archive assay for CCRIS mutagenicity studies.

Activity calls are given as the source filed them. No rule for the calls is given here.

With `CC(=O)[O-].CC(=O)[O-].[Cd+2]`, the mutagenic call (End Point: IN VITRO MICRONUCLEUS, Test System: CHL/IU CELLS, Metabolic Activation: NONE) was “active; positive” and the mutagenic call (Test System: CHINESE HAMSTER OVARY, Strain/Indicator: CHO-K1 (HPRT)/6-THIOGUANINE, Metabolic Activation: NONE) was “active; positive”.
For `CN(C)c1ccc(N=Nc2ccccc2)cc1`, the mutagenic call reads like this: (End Point: IN VIVO CHROMOSOMAL ABERRATIONS, Test System: BONE MARROW CELLS, Species: MOUSE, Strain/Sex: SWISS ALBINO, Route: DIET) “active; positive (% of aberrations increased with time)”; (End Point: IN VIVO MICRONUCLEUS, Test System: BONE MARROW CELL ERYTHROCYTES, Species: MOUSE, Strain/Sex: SWISS ALBINO, Route: DIET) “active; positive (% micronuclei increased with time)”; (End Point: IN VIVO MICRONUCLEUS, Test System: HEPATOCYTES, Species: RAT, Strain/Sex: FISHER 344 OR SD/MALE, Route: ORAL OR IP) “active; positive”; (End Point: IN VIVO MICRONUCLEUS, Test System: PERIPHERAL BLOOD RETICULOCYTES, Species: RAT, Strain/Sex: FISHER 344 OR SD/MALE, Route: ORAL OR IP) “active; positive”; (End Point: In vivo micronucleus, Test System: Micronucleated hepatocytes, Species: Rat, Strain/Sex: F344/Male, Route: Oral) “active; positive (highest dose only; p<0.05)”; (Test System: AMES SALMONELLA TYPHIMURIUM, Strain/Indicator: TA97, Metabolic Activation: HAMSTER, LIVER, S-9, AROCLOR 1254 (10%), Method: PREINCUBATION) “inactive; negative”. The mutagenic call was “inactive; negative” (Test System: AMES SALMONELLA TYPHIMURIUM, Strain/Indicator: TA97, Metabolic Activation: NONE, Method: PREINCUBATION); “inactive; negative” (Test System: AMES SALMONELLA TYPHIMURIUM, Strain/Indicator: TA97, Metabolic Activation: RAT, LIVER, S-9, AROCLOR 1254 (10%), Method: PREINCUBATION); “active; positive” (Test System: AMES SALMONELLA TYPHIMURIUM, Strain/Indicator: TA98, Metabolic Activation: HAMSTER, LIVER, S-9, AROCLOR 1254 (10%), Method: PREINCUBATION); “inactive; negative” (Test System: AMES SALMONELLA TYPHIMURIUM, Strain/Indicator: TA98, Metabolic Activation: NONE, Method: PREINCUBATION); “inactive; negative” (Test System: AMES SALMONELLA TYPHIMURIUM, Strain/Indicator: TA98, Metabolic Activation: RAT, LIVER, S-9, AROCLOR 1254 (10%), Method: PREINCUBATION); “active; positive” (Test System: AMES SALMONELLA TYPHIMURIUM, Strain/Indicator: TA98, Metabolic Activation: RAT, LIVER, S-9, AROCLOR 1254, Method: STANDARD PLATE). Also, the mutagenic call was “active; positive” (Test System: AMES SALMONELLA TYPHIMURIUM, Strain/Indicator: TA98, Metabolic Activation: RAT, LIVER, S-9, AROCLOR, Method: PREINCUBATION); “active; positive” (Test System: AMES SALMONELLA TYPHIMURIUM, Strain/Indicator: TA98, Metabolic Activation: RAT, LIVER, S-9, AROCLOR, Method: STANDARD PLATE); “active; positive” (Test System: AMES SALMONELLA TYPHIMURIUM, Strain/Indicator: TA98, Metabolic Activation: RAT, LIVER, S-9, KC500 OR PHENOBARBITAL, Method: LIQUID SUSPENSION); “inactive; negative” (Test System: AMES SALMONELLA TYPHIMURIUM, Strain/Indicator: TA100, Metabolic Activation: HAMSTER, LIVER, S-9, AROCLOR 1254 (5%), Method: PREINCUBATION); “inactive; negative” (Test System: AMES SALMONELLA TYPHIMURIUM, Strain/Indicator: TA100, Metabolic Activation: HAMSTER, LIVER, S-9, AROCLOR 1254 (10%), Method: PREINCUBATION); “active; positive” (Test System: AMES SALMONELLA TYPHIMURIUM, Strain/Indicator: TA100, Metabolic Activation: HAMSTER, LIVER, S-9, AROCLOR 1254 (30%), Method: PREINCUBATION). For the same compound, the mutagenic call runs as follows: (Test System: AMES SALMONELLA TYPHIMURIUM, Strain/Indicator: TA100, Metabolic Activation: NONE, Method: PREINCUBATION) “inactive; negative”; (Test System: AMES SALMONELLA TYPHIMURIUM, Strain/Indicator: TA100, Metabolic Activation: RAT, LIVER, S-9, AROCLOR 1254 (5 OR 30%), Method: PREINCUBATION) “inactive; negative”; (Test System: AMES SALMONELLA TYPHIMURIUM, Strain/Indicator: TA100, Metabolic Activation: RAT, LIVER, S-9, AROCLOR 1254, Method: STANDARD PLATE) “active; positive”; (Test System: AMES SALMONELLA TYPHIMURIUM, Strain/Indicator: TA100, Metabolic Activation: RAT, LIVER, S-9, KC500 OR PHENOBARBITAL, Method: LIQUID SUSPENSION) “active; positive”; (Test System: AMES SALMONELLA TYPHIMURIUM, Strain/Indicator: TA1535, Metabolic Activation: HAMSTER, LIVER, S-9, AROCLOR 1254 (10%), Method: PREINCUBATION) “inactive; negative”; (Test System: AMES SALMONELLA TYPHIMURIUM, Strain/Indicator: TA1535, Metabolic Activation: NONE, Method: PREINCUBATION) “inactive; negative”. The mutagenic call is “inactive; negative” (Test System: AMES SALMONELLA TYPHIMURIUM, Strain/Indicator: TA1535, Metabolic Activation: RAT, LIVER, S-9, AROCLOR 1254 (10%), Method: PREINCUBATION); “inactive; negative” (Test System: CHINESE HAMSTER V-79, Strain/Indicator: V-79/6-THIOGUANINE, Metabolic Activation: NONE, Method: SUSPENSION/PLATE); “inactive; negative” (Test System: CHINESE HAMSTER V-79, Strain/Indicator: V-79/6-THIOGUANINE, Metabolic Activation: RAT, LIVER, S-9, PHENOBARBITAL AND BETA-NAPHTHOFLAVONE, Method: SUSPENSION/PLATE); “inactive; negative” (Test System: E. COLI, Strain/Indicator: WP2 UVRA, Metabolic Activation: HAMSTER, LIVER, S-9, AROCLOR 1254, Method: STANDARD PLATE); “inactive; negative” (Test System: E. COLI, Strain/Indicator: WP2 UVRA, Metabolic Activation: HAMSTER, LIVER, S-9, Method: STANDARD PLATE); “inactive; negative” (Test System: E. COLI, Strain/Indicator: WP2 UVRA, Metabolic Activation: MOUSE, LIVER, S-9, AROCLOR 1254, Method: STANDARD PLATE). In addition, the mutagenic call (Test System: E. COLI, Strain/Indicator: WP2 UVRA, Metabolic Activation: MOUSE, LIVER, S-9, Method: STANDARD PLATE) is “inactive; negative”; the mutagenic call (Test System: E. COLI, Strain/Indicator: WP2 UVRA, Metabolic Activation: NONE, Method: STANDARD PLATE) was “inactive; negative”; the mutagenic call (Test System: E. COLI, Strain/Indicator: WP2 UVRA, Metabolic Activation: RAT, LIVER, S-9, AROCLOR 1254, Method: STANDARD PLATE) was “inactive; negative”; the mutagenic call (Test System: E. COLI, Strain/Indicator: WP2 UVRA, Metabolic Activation: RAT, LIVER, S-9, Method: STANDARD PLATE) is “inactive; negative”; the mutagenic call (Test System: MOUSE LYMPHOMA, Strain/Indicator: L5178Y (TK+/TK-), Metabolic Activation: NONE, Method: SUSPENSION/PLATE) is “inactive; negative”; the mutagenic call (Test System: MOUSE LYMPHOMA, Strain/Indicator: L5178Y (TK+/TK-), Metabolic Activation: RAT, LIVER, S-9, AROCLOR 1254, Method: SUSPENSION/PLATE) was “active; positive”.
`COc1cc(O)c2c(=O)c3c(OC)cc4c(c3oc2c1OC)C1CCOC1O4` (stereo unspecified): the mutagenic call by setting is: (Test System: AMES SALMONELLA TYPHIMURIUM, Strain/Indicator: TA98, Metabolic Activation: RAT, LIVER, S-9, PHENOBARBITAL, Method: STANDARD PLATE) “inactive; negative”; (Test System: AMES SALMONELLA TYPHIMURIUM, Strain/Indicator: TA100, Metabolic Activation: RAT, LIVER, S-9, PHENOBARBITAL, Method: STANDARD PLATE) “inactive; negative”.
As for `Cc1cc(C(C#N)c2ccc(Cl)cc2)c(Cl)cc1NC(=O)c1cc(I)cc(I)c1O` (stereo unspecified), where the note is “End Point: In vivo chromosomal aberrations, Test System: Bone marrow cells, Species: Mouse, Strain/Sex: Swiss/Male, Route: Intraperitoneal”, the mutagenic call is “active; positive (structural changes)”.
